This test relates to CEM cells HIV-1 protection, formazan growth assay. Kind of test: NCI AIDS Antiviral Assay. To be noted: for pIC50: measured here: growth of uninfected CEM cells. Summed up: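 Soluble formazan readout of cell growth; CEM cells ± HIV-1; 5 drug concs. ≥50% protection → retest; ≥50% again = moderately active; reproducible 100% = confirmed active.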

The term pEC50 denotes the negative decadic logarithm of the EC50, by convention in mol/L. As a reminder, the pIC50 is the negative decadic logarithm of the IC50, by convention in mol/L. A higher pIC50 goes with a low IC50.

Molecules are shown by their SMILES. pEC50, pIC50: −log10 of the molar value. The source made the active and inactive calls.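 The calls were made as follows: active = compounds giving half or more protection of infected cells from virus-caused growth loss, again on retest; inactive = the rest.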 Where a SMILES comes first, the peptide text is derived from it. [ ]: non-standard residue; d: D form. The star is where a group is joined. ξ: configuration not given here. X13 = COc1ccc(C(N*)c2ccc(OC)cc2)cc1; NMeF = CN[C@@H](Cc1ccccc1)C(=O)O; NMeD = CN[C@@H](CC(=O)O)C(=O)O; NMeV = CN[C@H](C(=O)O)C(C)C; ξNMeV = CNC(C(=O)O)C(C)C; Boc = CC(C)(C)OC(=O)*; ξNMeA = CNC(C)C(=O)O; ξV = CC(C)C(N)C(=O)O

Take `COc1cc(NC(=O)CC(C)=O)cc2c(C)cc(=O)n(C)c12`: the pEC50 was under 3.70 and the pIC50 is 3.93.

Take `COc1nc(NC2OC(COC(C)=O)C(OC(C)=O)C(OC(C)=O)C2OC(C)=O)c(C(=O)CCl)c(=O)n1C` (centres undefined): the outcome was inactive. Turning to `Cc1cc(C)nc(NC(=S)Nc2ccc([N+](=O)[O-])cc2)c1`, the pEC50 was under 3.70 and the pIC50 is under 3.70. Turning to `C#Cc1c(C)c(/C=C/C(C)=C/C=C/C(C)=C/C(=O)OC)n(C)c1C`, the pEC50 was under 4.65 and the pIC50 was under 4.65. With `CCOC(=O)N1CCN(C=S)CC1`, the pEC50 is under 2.91 and the pIC50 was under 2.91.

Consider `O=S(=O)(O)c1cc(S(=O)(=O)O)c2c(Nc3ccnc4ccccc34)ccc(S(=O)(=O)O)c2c1`, for which the pEC50 is under 3.70 and the pIC50 was under 3.70. Turning to `CC(=O)Nc1ccc(C(C2=C(O)c3ccccc3C(=O)C2=O)C2=C(O)c3ccccc3C(=O)C2=O)cc1`, the pEC50 is under 3.70 and the pIC50 was 4.79. On the same counts, the results for `CCCCCCCCCCCCCCC(C(=O)O)S(=O)(=O)O` (centres undefined) are under 3.70 and 3.81.

`NC1=NN(O)C2=CC([N+](=O)[O-])C=CC2=N1` (centres undefined): the pEC50 was under 4.60 and the pIC50 is 4.69. Taken in the same sequence, the figures for `O=C1CC2C(=O)C1C(C(=O)O)C2C(=O)O` (centres undefined) were under 2.93 and under 2.93.

For `Cn1c2ccccc2n2c3ccccc3c(=S)c(C#N)c12`, the pEC50 was under 4.00 and the pIC50 was under 4.00. Regarding `CC(=S)N/C=C\c1nc2ccccc2[nH]c1=O`, the outcome was inactive.

As for `O=C(C[n+]1ccccc1)c1ccc(O)c(O)c1`, the pEC50 is 7.20 and the pIC50 is under 3.70. On the same counts, the results for `OCn1nc2c(C3OCCO3)cc3ccccc3n2c1=S` are under 3.93 and 4.21. Taken in the same sequence, the figures for `CSc1ccc(NC(=O)Nc2cc(C)cc(C)n2)cc1` were under 3.70 and under 3.70.

For `C/C(=N\NC(N)=O)C(CN1CCCCC1)C(c1ccccc1)c1c(O)c2ccccc2oc1=O` (centres undefined), the pEC50 was under 4.06 and the pIC50 is 4.33. As for `COc1ccc(C2C3=CONC3CC3CCCCC32)cc1` (centres undefined), the pEC50 is under 3.70 and the pIC50 is 4.11. Taken in the same sequence, the figures for `COc1cc(-c2ccc(Br)[nH]2)[nH]c1C=NCC(C)C` were under 3.70 and 4.98.

For the compound `NC1C2CN3CCC(O2)C13` (centres undefined), the result was inactive. In the case of `CCOC(=O)c1cn(-c2ccccc2)c(=S)n2c1nc1ccccc12`, the pEC50 was under 3.70 and the pIC50 was 5.12. Regarding `CC(=O)NC1C(OCc2ccccc2)OC(CO)C(O)C1OCC(=O)NC(C)C(=O)NC(CCC(=O)NCCCCNc1ccc([N+](=O)[O-])c2[nH]c3ccccc3c(=O)c12)C(N)=O` (centres undefined), the pEC50 is 4.09 and the pIC50 was under 4.00. `O=C(c1ccccc1)n1c2ccc(Br)cc2c2nc3ccccc3nc21`: the pEC50 was under 4.30 and the pIC50 was under 4.30. For the compound `COc1c2cc([N+](=O)[O-])cc1CNC(=O)CN1CCOCCOCCN(CCOCCOCC1)CC(=O)NC2`, the pEC50 was under 4.00 and the pIC50 was under 4.00. As to `Cn1c2ccccc2c(=NNc2ccccc2C(=O)O)c2ccccc21`, the pEC50 was under 3.70 and the pIC50 was 4.71. Taken in the same sequence, the figures for `O=[N+]([O-])/C(C(Cl)=C(Cl)Cl)=C(/Nc1ccccc1)SCc1ccccc1` were under 3.70 and 4.42.

As to `Cc1cn(C2CC(NO)C(CO[Si](C)(C)C(C)(C)C)O2)c(=O)[nH]c1=O` (centres undefined), the pEC50 is under 3.70 and the pIC50 is 3.90. On the same counts, the results for `CCCCCCCCCCCCOc1ccc(/C(=N\N=C(N)N)c2ccccc2)c(O)c1` are under 3.70 and under 3.70.

With `C=C(C)CCNCC/C=C\[Si](C)(C)C`, the pEC50 is under 2.93 and the pIC50 is under 2.93. Regarding `CC(=O)N1CCCCCC1=O`, the pEC50 was under 2.79 and the pIC50 was under 2.79.

On to `O=C1OCc2cccc3c2-c2c1cccc2C(=O)OC3`, for which the outcome was inactive. Still for that read-out and setting: the same measure for `Cc1cc(O)ccc1C1(c2ccc(O)cc2C)OS(=O)(=O)c2ccccc21`: “inactive”. Take `CC1C(N2CCCCC2)N(C(=O)c2ccccc2)SC12c1ccccc1-c1ccccc12` (centres undefined): the pEC50 is under 4.37 and the pIC50 was under 4.37.

With `COc1cc(NS(=O)(=O)c2ccc(NC(=O)c3ccccc3SC(=O)CCCC[n+]3ccccc3)cc2)nc(OC)n1`, the pEC50 is 4.57 and the pIC50 was 4.22.

On to `COc1c2ccoc2cc2oc(=O)ccc12`, for which the pEC50 was under 4.23 and the pIC50 was under 4.23.

`c1ccc(-c2c3ccccc3[o+]c3ccccc23)cc1`: the pEC50 is under 3.70 and the pIC50 was 4.48. On the same counts, the results for `Cc1ccc2ccc3ccc(C)nc3c2n1` are under 4.92 and 6.62. For the compound `N#CC(C(=O)C(=O)Nc1ccc(Cl)c(Cl)c1)c1ccc(Cl)cc1` (centres undefined), the pEC50 was under 3.87 and the pIC50 was 3.97. On the same counts, the results for `Cc1ccc2c(c1)P1c3cc(C)ccc3SP1S2` (centres undefined) are under 4.91 and under 4.91. On the same counts, the results for `CN(C(=O)c1ccccc1)c1ccc2c(c1)C(=O)c1ccccc1C2=O` are under 4.82 and under 4.82.

As to `C=C(C)CC(OC(=O)C(C)(C)C)c1ccccc1` (centres undefined), the result was inactive. Take `COc1cc(CSc2ccc(O)cc2)cc(OC)c1OC`: the pEC50 is under 3.70 and the pIC50 was 4.48. As to `NC(N)=NS(=O)(=O)c1ccc(NC(=O)c2ccc3nc4ccccc4c(N)c3c2)cc1`, the pEC50 was 3.99 and the pIC50 was under 3.70. On the same counts, the results for `COc1cc(CC(C(=O)OC(C)(C)C)C(=O)OC(C)(C)C)c(NC(C)=O)c(OC)c1OC` are under 3.70 and under 3.70. On the same counts, the results for `O=c1oc(-c2ccccc2NS(=O)(=O)c2ccccc2)nc2cc(Cl)ccc12` are under 3.70 and 5.84.

With `CCCCCCCCCc1cc(=O)c2ccc(OCc3ccccc3)cc2o1`, the pEC50 is under 5.56 and the pIC50 is under 5.56.

For the compound `CCOC(=O)C1=[N+]([O-])OC2=C(O)CCCC21` (centres undefined), the result was inactive. Turning to `Cc1ccc([PH+](CC[PH+](c2ccccc2)c2ccccc2)c2ccc(C)cc2)cc1.Cc1ccc([PH+](CC[PH+](c2ccccc2)c2ccccc2)c2ccc(C)cc2)cc1.[Pt]`, the pEC50 was under 5.16 and the pIC50 is 5.42.

Take `CCOC(=O)N1C=NC23C(c4ccccc4)C(c4ccccc4)C12C(=O)N(C)C(=O)N3C` (centres undefined): the pEC50 was under 4.64 and the pIC50 is under 4.64. Consider `Nc1ncnc2c1nc(Br)n2C(C=O)OC(C=O)CO` (centres undefined), for which the outcome was inactive. `COC(=O)C1=C(C(=O)OC)C(C(=O)OC)N2C=CC=CC2=C1C(=O)OC` (centres undefined): the pEC50 was under 3.70 and the pIC50 was under 3.70. For `COc1cccc(CC2NCCc3c2[nH]c2ccccc32)c1` (centres undefined), the pEC50 was under 3.60 and the pIC50 was 4.33. With `Cc1n[nH]c(=O)n1/N=C/c1ccc([N+](=O)[O-])cc1`, the pEC50 was under 3.70 and the pIC50 was under 4.00.

With `S=c1oc(CCCCCCCCc2nn(CNc3ccc(Cl)cc3)c(=S)o2)nn1CNc1ccc(Cl)cc1`, the outcome was inactive.

With `Cn1c(=O)nc2n(-c3ccc(Cl)cc3)c3ccc(Cl)cc3nc-2c1=O`, the result was inactive. For the compound `COc1ccc(/C=C/C(=O)OCCc2ccccc2)cc1O`, the pEC50 was under 5.08 and the pIC50 was 5.35.

For `O=C1c2cccnc2-c2nccc3c2c1nc1cc(Br)ccc13`, the pEC50 is under 5.57 and the negative logarithm of the IC50 (pIC50) was 6.88. Taken in the same sequence, the figures for `Cc1nc2nn[nH]n2c(=O)c1CCO` were under 3.70 and under 3.70. On the same counts, the results for `CC(=O)/C(=C\n1c(=S)[nH]c2ccccc21)C(=O)Nc1ccccc1` are under 3.70 and under 3.70. Take `Cc1cc(OP2(=O)Nc3ccccc3-c3ccccc3N2)ccc1Cl`: the pEC50 is under 4.15 and the pIC50 was 5.90.

Consider `CC1=C(C#N)C(=O)N(/N=C/c2ccc(Cl)cc2)C(=O)/C1=c1\o/c(=C2/C(=O)N(/N=C/c3ccc(Cl)cc3)C(=O)C(C#N)=C2C)c2nccnc12`, for which the pEC50 was under 3.70 and the pIC50 was 3.96.

Consider `CN(C)CCn1c(=O)nc2c3c(c([N+](=O)[O-])ccc31)Nc1ccc(O)cc1-2`, for which the pEC50 was under 5.70 and the pIC50 is 5.71.

For `CCN(CC)CCC(=O)c1ccc(Oc2ccc(C)cc2)cc1`, the pEC50 was under 3.70 and the pIC50 is 4.54. In turn, `O=[N+]([O-])c1ccccc1N=Nc1c(O)[nH]c2ccc(S(=O)(=O)O)cc12` gave a negative logarithm of the EC50 (pEC50) of under 3.70 and a pIC50 of under 3.70. In the case of `CC(C)CCCC(C)[C@H]1CCC2C3CCC4C[C@@H](CCCC(c5cc(Cl)c(O)c(C(=O)O)c5)c5cc(Cl)c(O)c(C(=O)O)c5)CC[C@]4(C)C3CC[C@@]21C` (some centres undefined), the pEC50 was 5.05 and the pIC50 was under 3.70. For `C=C(C)[C@@H]1CC[C@]2(C(=O)OC)CC[C@]3(C)[C@H](CC[C@@H]4[C@@]5(C)CC[C@H](O)C(C)(C)[C@@H]5CC[C@]43C)[C@@H]12`, the result was inactive. Turning to `S=C(S)N1CCOCC1`, the pEC50 was under 3.70 and the pIC50 is 6.14. For the compound `COc1ccc(C(NC(=O)C[C@@H](C(=O)N(C)C(C)C(=O)O)N(C)C(=O)[C@@H]2CCCN2C(=O)[C@H](C(C)C)N(C)C(=O)C(C(C)C)N(C)C(=O)[C@H](Cc2ccccc2)N(C)C(=O)C(NC(=O)OC(C)(C)C)C(C)C)c2ccc(OC)cc2)cc1` (some centres undefined) (Boc-[ξV][NMeF][ξNMeV][NMeV]P[NMeD](X13)[ξNMeA]-OH), the pEC50 is under 3.80 and the pIC50 was 4.63. On to `COC(=O)Cn1c(=O)oc2nc(-c3ccccc3)cc(C(F)(F)F)c21`, for which the pEC50 was under 3.70 and the pIC50 is 3.89. On the same counts, the results for `C[P+]1(c2ccccc2)CCC(N)=C(C#N)C1` (centres undefined) are under 2.97 and under 2.97. Taken in the same sequence, the figures for `CC(=O)NNc1nc(C)c(C(/C=C/c2ccc(/C=C/C(=N\NC(=O)c3ccncc3)c3sc(NNC(C)=O)nc3C)cc2)=N/NC(=O)c2ccncc2)s1` were under 4.88 and under 4.88.

For the origin of these results see PubChem BioAssay AID179 (DTP/NCI, 2004).
